Earlier results as cited in patent JPH06128153A, “トラニラスト軟膏組成物およびその製造方法” (Kissei Pharmaceutical Co Ltd, priority 1992, dated 1994).
Where two headings read alike, the source gives them in different places.

Settings: stated as known, no test described

solubility in water (ナトリウム塩) | solubility in water | Structure (SMILES)
わずかしか溶解しない | – | COc1ccc(/C=C/C(=O)Nc2ccccc2C(=O)O)cc1OC [ナトリウム塩]
– | 極めて難溶 | COc1ccc(/C=C/C(=O)Nc2ccccc2C(=O)O)cc1OC [トラニラスト]
